*1 amine or outer side, *2 acyl side, *3 side chain or, on linkers, in order; H or OH if unused. Where a SMILES comes first, the peptide text is derived from it. Bridges are numbered along the chain shown (N, C = ends). Roman numbers before positions name the chains, in order. [ ]: non-standard residue; d: D form. The star is where a group is joined. dAla(N-(6-guanidinohexyl)) = C[C@@H](NCCCCCCNC(=N)N)C(=O)O; DOTA = O=C(O)CN1CCN(CC(=O)O)CCN(CC(=O)*)CCN(CC(=O)O)CC1; X6 = C[C@H](C(=O)[*:2])N(CCCCCCCNC(=O)c1ccc(F)cc1)[*:1]; X14 = C[C@H](C(=O)[*:2])N(CCCCCNC(=O)c1ccc(F)cc1)[*:1]; X8 = C[C@H](C(=O)[*:2])N(CCCCCCNC(=O)c1ccc(F)cc1)[*:1]; X5 = C[C@H](C(=O)[*:2])N(CCCCCCNCc1cccc2ccccc12)[*:1]; X9 = C[C@H](C(=O)[*:2])N(CCCCNC(=O)c1ccc(F)cc1)[*:1]; X4 = C[C@H](C(=O)[*:2])N(CCCCCCNCc1ccccc1)[*:1]; X1 = C[C@@H](C(=O)[*:2])N(CCCCCCNC(=N)N)[*:1]; X7 = CC(=O)NCCCCCCN([C@H](C)C(=O)[*:2])[*:1]; X3 = C[C@H](C(=O)[*:2])N(CCCCCCN[*:3])[*:1]; X10 = C[C@@H](C(=O)[*:2])N(CCCCCCN)[*:1]; X12 = C[C@H](C(=O)[*:2])N(CCCCCCN)[*:1]; X2 = C[C@H](C(=O)[*:2])N(CCCCCCCN)[*:1]; X13 = C[C@H](C(=O)[*:2])N(CCCCCN)[*:1]; 2Nal = N[C@@H](Cc1ccc2ccccc2c1)C(=O)O; Suberoyl = O=C(CCCCCCC(=O)[*:2])[*:1]; X11 = C[C@H](C(=O)[*:2])N(CCCCN)[*:1]; Adipoyl = O=C(CCCCC(=O)[*:2])[*:1]; Gly(N-(CH2)6NH2) = NCCCCCCNCC(=O)O; Suc = O=C(CCC(=O)[*:2])[*:1]
What follows are molecules tested against T1, CXCR4 receptor (Homo sapiens, UniProt P61073) (assay: Receptor binding assay (competition with 125I tracer on Jurkat cells)). Settings: tracer cyclo(-D-Tyr^1 [^125I]-Arg^2-Arg^3-Nal^4-Gly^5), 2 h at room temperature, D-Ala N-hexyl series, R varied.
T1 construct: endogenous in cells; host or cells: Jurkat cells
T1 sequence (P61073 whole entry): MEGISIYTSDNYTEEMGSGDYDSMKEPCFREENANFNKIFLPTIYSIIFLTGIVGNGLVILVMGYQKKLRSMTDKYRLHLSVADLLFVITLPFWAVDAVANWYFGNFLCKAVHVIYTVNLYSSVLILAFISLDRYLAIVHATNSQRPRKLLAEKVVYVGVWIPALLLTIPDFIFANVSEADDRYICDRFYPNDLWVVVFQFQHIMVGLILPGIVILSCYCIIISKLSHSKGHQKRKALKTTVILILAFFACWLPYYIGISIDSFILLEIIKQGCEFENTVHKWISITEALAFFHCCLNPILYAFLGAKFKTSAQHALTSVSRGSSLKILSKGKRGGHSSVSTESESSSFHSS
Description: For receptor binding assays cells were resuspended in PBS/0.2 % BSA. A total of 200 µl of the suspension containing 400,000 Jurkat cells were incubated with 25 µl of the tracer solution (containing 100000cpm / 25µl, approx. 0.1 nM) and 25 µl of the diluent or the competitor at different concentrations. For determination of IC50 values, cyclo(-D-Tyr^1 [^125I]-Arg^2-Arg^3-Nal^4-Gly^5) was used as a tracer. Nonspecific binding was determined in the presence of 1 µM cold cyclo(-D-Tyr^1[^127I]-Arg^2-Arg^3-Nal^4-Gly^5). After shaking for 2 h at room temperature, the incubation was terminated by centrifugation at 2000 rpm for 5 min. Cell pellets were washed once with 400µl cold PBS followed by a second centrifugation step. Cell bound radioactivity was determined by using a gamma counter. Experiments were repeated 2-3 times in triplicates. IC50 values of the compounds were calculated by nonlinear regression using GraphPad Prism (GraphPad Prism 4.0 Software, Inc., San Diego, CA, USA). Each data point is the average of three determinations.

Compared with `C[C@@H]1C(=O)N[C@@H](CCCNC(=N)N)C(=O)N[C@@H](Cc2ccc3ccccc3c2)C(=O)NCC(=O)N[C@H](Cc2ccc(O)cc2)C(=O)N1CCCCCCN` [ya(Hex)RNalG] (cyclo([2Nal]G[dY][X12]R)), `C[C@@H]1C(=O)N[C@@H](CCCNC(=N)N)C(=O)N[C@@H](Cc2ccc3ccccc3c2)C(=O)NCC(=O)N[C@H](Cc2ccc(O)cc2)C(=O)N1CCCCCCNC(=N)N` [ya(Hex, Gua) RNalG, cyclo(-D-Tyr-(α-6-guanidinohexyl)-D-Ala-R-Nal-G)] (cyclo([dY][dAla(N-(6-guanidinohexyl))]R[2Nal]G)) is 7.5-fold lower in IC50: 0.3 ± 0.2 nM for the first, 0.04 ± 0.02 nM for the second.

First: C[C@@H]1C(=O)N[C@@H](CCCNC(=N)N)C(=O)N[C@@H](Cc2ccc3ccccc3c2)C(=O)NCC(=O)N[C@H](Cc2ccc(O)cc2)C(=O)N1CCCCCCNC(=O)CN1CCN(CC(=O)O)CCN(CC(=O)O)CCN(CC(=O)O)CC1 [ya(Hex,DOTA) RNalG, cyclo(-D-Tyr-(α-6-aminohexyl, DOTA)-D-Ala-R-Nal-G)] (cyclo([2Nal]G[dY][X3](DOTA)R))
Second: CC(=O)NCCCCCCN1C(=O)[C@@H](Cc2ccc(O)cc2)NC(=O)CNC(=O)[C@H](Cc2ccc3ccccc3c2)NC(=O)[C@H](CCCNC(=N)N)NC(=O)[C@H]1C [ya(Hex,Ac) RNalG, cyclo(-D-Tyr-(α-6-aminohexyl, Ac)-D-Ala-R-Nal-G)] (cyclo([2Nal]G[dY][X7]R))
The IC50 of the first is 12-fold higher: 509.7 ± 0.2 nM for the first, 44.1 ± 6.2 nM for the second.

Compared with `C[C@@H]1C(=O)N[C@@H](CCCNC(=N)N)C(=O)N[C@@H](Cc2ccc3ccccc3c2)C(=O)NCC(=O)N[C@H](Cc2ccc(O)cc2)C(=O)N1CCCCCCNC(=O)c1ccc(F)cc1` [ya(Hex, FBz) RNalG, cyclo(-D-Tyr-(α-6-aminohexyl, 4-fluorobenzoic acid)-D-Ala-R-Nal-G)] (cyclo([2Nal]G[dY][X8]R)), `C[C@@H]1C(=O)N[C@@H](CCCNC(=N)N)C(=O)N[C@@H](Cc2ccc3ccccc3c2)C(=O)NCC(=O)N[C@H](Cc2ccc(O)cc2)C(=O)N1CCCCCCNCc1ccccc1` [ya(Hex, Bz) RNalG, cyclo(-D-Tyr-(α-6-aminohexyl, benzyl)-D-Ala-R-Nal-G)] (cyclo([2Nal]G[dY][X4]R)) is 5.1-fold lower in IC50: 21.4 ± 5.8 nM for the first, 4.2 ± 1.4 nM for the second. The second is the more potent here.

`C[C@@H]1C(=O)N[C@@H](CCCNC(=N)N)C(=O)N[C@@H](Cc2ccc3ccccc3c2)C(=O)NCC(=O)N[C@H](Cc2ccc(O)cc2)C(=O)N1CCCCCCNCc1cccc2ccccc12` [ya(Hex,1 Nap) RNalG, cyclo(-D-Tyr-(α-6-aminohexyl,1-naphthylmethyl)-D-Ala-R-Nal-G)] (cyclo([2Nal]G[dY][X5]R)) was tested, and the IC50 was 5.1 ± 1.3 nM.

Same assay, conditions: tracer cyclo(-D-Tyr^1 [^125I]-Arg^2-Arg^3-Nal^4-Gly^5), 2 h at room temperature, Gly analogue

Work on `N=C(N)NCCC[C@@H]1NC(=O)CN(CCCCCCN)C(=O)[C@@H](Cc2ccc(O)cc2)NC(=O)CNC(=O)[C@H](Cc2ccc3ccccc3c2)NC1=O` [yG(Hex)RNalG, cyclo(-D-Tyr-(α-6-aminohexyl)-G-R-Nal-G)] (cyclo([2Nal]G[dY][Gly(N-(CH2)6NH2)]R)) yielded an IC50 of 104 nM.

Same assay, conditions: tracer cyclo(-D-Tyr^1 [^125I]-Arg^2-Arg^3-Nal^4-Gly^5), 2 h at room temperature, L-Ala series

Compared with `C[C@H]1C(=O)N[C@@H](CCCNC(=N)N)C(=O)N[C@@H](Cc2ccc3ccccc3c2)C(=O)NCC(=O)N[C@H](Cc2ccc(O)cc2)C(=O)N1CCCCCCNC(=N)N` [yA(Hex,Gua)RNa IG, cyclo(-D-Tyr-(α-6-guanidinohexyl)-L-Ala-R-Nal-G)] (cyclo([2Nal]G[dY][X1]R)), `C[C@H]1C(=O)N[C@@H](CCCNC(=N)N)C(=O)N[C@@H](Cc2ccc3ccccc3c2)C(=O)NCC(=O)N[C@H](Cc2ccc(O)cc2)C(=O)N1CCCCCCN` [yA(Hex)RNalG] (cyclo([2Nal]G[dY][X10]R)) is 21-fold higher in IC50: 4.4 ± 0.3 nM for the first, 94.2 ± 38 nM for the second. The first is the more potent here.

Same assay, conditions: tracer cyclo(-D-Tyr^1 [^125I]-Arg^2-Arg^3-Nal^4-Gly^5), 2 h at room temperature, alkyl chain length n varied

Going from `C[C@@H]1C(=O)N[C@@H](CCCNC(=N)N)C(=O)N[C@@H](Cc2ccc3ccccc3c2)C(=O)NCC(=O)N[C@H](Cc2ccc(O)cc2)C(=O)N1CCCCN` [ya(But)RNalG, cyclo(-D-Tyr-(α-4-aminobutyl)-D-Ala-R-Nal-G)] (cyclo([2Nal]G[dY][X11]R)) to `C[C@@H]1C(=O)N[C@@H](CCCNC(=N)N)C(=O)N[C@@H](Cc2ccc3ccccc3c2)C(=O)NCC(=O)N[C@H](Cc2ccc(O)cc2)C(=O)N1CCCCCN` [ya(Pent)RNalG, cyclo(-D-Tyr-(α-5-aminopentyl)-D-Ala-R-Nal-G)] (cyclo([2Nal]G[dY][X13]R)), the IC50 rises from 0.9 ± 0.1 nM to 1.6 ± 0.3 nM (1.8-fold).

Going from `C[C@@H]1C(=O)N[C@@H](CCCNC(=N)N)C(=O)N[C@@H](Cc2ccc3ccccc3c2)C(=O)NCC(=O)N[C@H](Cc2ccc(O)cc2)C(=O)N1CCCCCCCNC(=O)c1ccc(F)cc1` [ya(Hept,FBz)RNalG, cyclo(-D-Tyr-(α-7-aminoheptyl, 4-fluorobenzoic acid)-D-Ala-R-Nal-G)] (cyclo([dY][X6]R[2Nal]G)) to `C[C@@H]1C(=O)N[C@@H](CCCNC(=N)N)C(=O)N[C@@H](Cc2ccc3ccccc3c2)C(=O)NCC(=O)N[C@H](Cc2ccc(O)cc2)C(=O)N1CCCCCNC(=O)c1ccc(F)cc1` [ya(Pent, FBz)RNalG, cyclo(-D-Tyr-(α-5-aminopentyl, 4-fluorobenzoic acid)-D-Ala-R-Nal-G)] (cyclo([2Nal]G[dY][X14]R)), the IC50 rises from 16.5 ± 3.1 nM to 34.2 ± 9.3 nM (2.1-fold).

First: C[C@@H]1C(=O)N[C@@H](CCCNC(=N)N)C(=O)N[C@@H](Cc2ccc3ccccc3c2)C(=O)NCC(=O)N[C@H](Cc2ccc(O)cc2)C(=O)N1CCCCNC(=O)c1ccc(F)cc1 [ya(But,FBz)RNalG, cyclo(-D-Tyr-(α-4-aminobutyl, 4-fluorobenzoic acid)-D-Ala-R-Nal-G)] (cyclo([2Nal]G[dY][X9]R))
Second: C[C@@H]1C(=O)N[C@@H](CCCNC(=N)N)C(=O)N[C@@H](Cc2ccc3ccccc3c2)C(=O)NCC(=O)N[C@H](Cc2ccc(O)cc2)C(=O)N1CCCCCCCN [ya(Hept)RNalG, cyclo(-D-Tyr-(α-7-aminoheptyl)-D-Ala-R-Nal-G)] (cyclo([2Nal]G[dY][X2]R))
The IC50 of the first is 11-fold higher: 26 ± 5.7 nM for the first, 2.4 ± 0.8 nM for the second. The second is the more potent here.

Same assay, conditions: tracer cyclo(-D-Tyr^1 [^125I]-Arg^2-Arg^3-Nal^4-Gly^5), 2 h at room temperature, dimers

`C[C@@H]1C(=O)N[C@@H](CCCNC(=N)N)C(=O)N[C@@H](Cc2ccc3ccccc3c2)C(=O)NCC(=O)N[C@H](Cc2ccc(O)cc2)C(=O)N1CCCCCCNC(=O)CCC(=O)NCCCCCCN1C(=O)[C@@H](Cc2ccc(O)cc2)NC(=O)CNC(=O)[C@H](Cc2ccc3ccccc3c2)NC(=O)[C@H](CCCNC(=N)N)NC(=O)[C@H]1C` [Dimer 4, ya(Hex)RNalG butan-1,4-diacid dimer] (I: cyclo([2Nal]G[dY][X3]R) / II: cyclo([2Nal]G[dY][X3]R); linker I:4-II:4 via Suc) and `C[C@@H]1C(=O)N[C@@H](CCCNC(=N)N)C(=O)N[C@@H](Cc2ccc3ccccc3c2)C(=O)NCC(=O)N[C@H](Cc2ccc(O)cc2)C(=O)N1CCCCCCNC(=O)CCCCC(=O)NCCCCCCN1C(=O)[C@@H](Cc2ccc(O)cc2)NC(=O)CNC(=O)[C@H](Cc2ccc3ccccc3c2)NC(=O)[C@H](CCCNC(=N)N)NC(=O)[C@H]1C` [Dimer 6, ya(Hex)RNalG hexan-1,6-diacid dimer] (I: cyclo([2Nal]G[dY][X3]R) / II: cyclo([2Nal]G[dY][X3]R); linker I:4-II:4 via Adipoyl) are within error of each other in IC50: 5.5 ± 1.4 nM for the first, 7.8 ± 3.1 nM for the second.

With `C[C@@H]1C(=O)N[C@@H](CCCNC(=N)N)C(=O)N[C@@H](Cc2ccc3ccccc3c2)C(=O)NCC(=O)N[C@H](Cc2ccc(O)cc2)C(=O)N1CCCCCCNC(=O)CCCCCCC(=O)NCCCCCCN1C(=O)[C@@H](Cc2ccc(O)cc2)NC(=O)CNC(=O)[C@H](Cc2ccc3ccccc3c2)NC(=O)[C@H](CCCNC(=N)N)NC(=O)[C@H]1C` [Dimer 8, ya(Hex)RNalG octan-1,8-diacid dimer] (I: cyclo([2Nal]G[dY][X3]R) / II: cyclo([2Nal]G[dY][X3]R); linker I:4-II:4 via Suberoyl) the IC50 was 15.9 ± 10.6 nM.

From patent EP2380597A1, “Cyclopeptide derivatives and uses thereof” (Technische Universität München, priority 2010, dated 2011)
